Test results as given in patent publication US20080020932A1, “Method for Combating Weeds” (Bayer Cropscience AG, priority 2004, published 2008).

Test system: Apera spica-venti
Experiment: Postemergence field trials in winter wheat: herbicidal activity
Type: in vivo
Conditions: field trials carried out
Experimental: The compound of the formula (I) was tested under field conditions in Winter wheat in Germany and Poland against the economically significant weed Apera spica-venti. The plot trials were instituted on cultivated land used agriculturally, and the conditions of cultivation and climate can be regarded as being representative over the period under investigation. Areas with a particularly high weed population were selected preferentially.
The active ingredient was applied postemergence (spring) across the area by spraying with a medium droplet size. An appropriate preparation of active ingredient was produced by formulating the active ingredient as a 10 WP (10% w/w water-dispersible powder), mixed with the safener mefenpyr-diethyl as a 15 WG (15% w/w water-dispersible granules) and with alkyl ether sulfates as an additive, and applied with customary amounts of water.
For the assessment of crop tolerance, instances of plant growth inhibition or lightening of the leaf area were rated in % damage in comparison to the development of the untreated control, 1 to 7 weeks after treatment. The herbicidal activity was assessed at a number of times after treatment, based on the development of weeds, as a % reduction in comparison to the untreated control. For these purposes: • 0%=no damage to crop or no herbicidal action; • 100%=total destruction of the crop or of the weeds, respectively.

COC(=O)c1csc(C)c1S(=O)(=O)NC(=O)n1nc(OC)n(C)c1=O [compound of the formula (I), 5-methoxy-4-methyl-2-[(4-methoxycarbonyl-2-methylthien-3-yl)sulfonylaminocarbonyl]-2,4-dihydro-3H-1,2,4-triazol-3-one]
control of the annual varieties of Apera spica-venti in cereals (in words): particularly effective
